Data: the supplement of paper PMC10307832

How the values were obtained:
Experiment in all cases: relative viability (nuclei count vs DMSO), 5 days (fraction); higher = more cells survive
[1] = compound: CN(C)CC1=CC(=CC=C1)N=C(C2=CC=CC=C2)C3=C(NC4=C3C=CC(=C4)C(=O)N(C)C)O + C[C@]1(O)C[C@@H](c2nc(-c3ccc4ccc(-c5ccccc5)nc4c3)c3c(N)nccn32)C1 [Linsitinib] (partner 1 µM)
How it was run: (§1)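 Lung cancer cell lines, seeded in 1536-well plates, were treated the following day by pin tool with a single drug or with five library-drug doses (not always all listed) in √10 steps on top of a fixed anchor-drug dose. Cells were fixed and nuclei stained in one step after 5 days, and nuclei were counted. Relative viability is the nuclei count for treated wells divided by that for vehicle wells, reported as medians of duplicate plates.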

[2] = compound: CN(C)CC1=CC(=CC=C1)N=C(C2=CC=CC=C2)C3=C(NC4=C3C=CC(=C4)C(=O)N(C)C)O + CS(=O)(=O)N1CCN(Cc2cc3nc(-c4cccc5[nH]ncc45)nc(N4CCOCC4)c3s2)CC1 [Pictilisib] (partner 1 µM)
How it was run: as §1

[3] = compound: CN(C)CC1=CC(=CC=C1)N=C(C2=CC=CC=C2)C3=C(NC4=C3C=CC(=C4)C(=O)N(C)C)O + CS(=O)(=O)CCNCc1ccc(-c2ccc3ncnc(Nc4ccc(OCc5cccc(F)c5)c(Cl)c4)c3c2)o1 [Lapatinib] (partner 2 µM)
How it was run: as §1

[4] = compound: CN(C)CC1=CC(=CC=C1)N=C(C2=CC=CC=C2)C3=C(NC4=C3C=CC(=C4)C(=O)N(C)C)O + CC(C)C[C@H](NC(=O)[C@H](Cc1ccccc1)NC(=O)c1cnccn1)B(O)O [Bortezomib] (partner 0.002 µM)
How it was run: as §1

[5] = compound: CN(C)CC1=CC(=CC=C1)N=C(C2=CC=CC=C2)C3=C(NC4=C3C=CC(=C4)C(=O)N(C)C)O + C[C@@H](Oc1cc(-c2cnn(C3CCNCC3)c2)cnc1N)c1c(Cl)ccc(F)c1Cl [Crizotinib] (partner 1 µM)
How it was run: as §1

[6] = compound: CN(C)CC1=CC(=CC=C1)N=C(C2=CC=CC=C2)C3=C(NC4=C3C=CC(=C4)C(=O)N(C)C)O + O=C(c1cc(Cc2n[nH]c(=O)c3ccccc23)ccc1F)N1CCN(C(=O)C2CC2)CC1 [Olaparib] (partner 8 µM)
How it was run: as §1

[7] = compound: CN(C)CC1=CC(=CC=C1)N=C(C2=CC=CC=C2)C3=C(NC4=C3C=CC(=C4)C(=O)N(C)C)O + Cc1nc(NC(=O)N2CCC[C@H]2C(N)=O)sc1-c1ccnc(C(C)(C)C(F)(F)F)c1 [Alpelisib] (partner 2 µM)
How it was run: as §1

[8] = compound: CN(C)CC1=CC(=CC=C1)N=C(C2=CC=CC=C2)C3=C(NC4=C3C=CC(=C4)C(=O)N(C)C)O + CC1(C)CCC(c2ccc(Cl)cc2)=C(CN2CCN(c3ccc(C(=O)NS(=O)(=O)c4ccc(N[C@H](CCN5CCOCC5)CSc5ccccc5)c(S(=O)(=O)C(F)(F)F)c4)cc3)CC2)C1 [Navitoclax] (partner 0.5 µM)
How it was run: as §1

[9] = compound: CN(C)CC1=CC(=CC=C1)N=C(C2=CC=CC=C2)C3=C(NC4=C3C=CC(=C4)C(=O)N(C)C)O + COc1cc2c(Oc3ccc(NC(=O)C4(C(=O)Nc5ccc(F)cc5)CC4)cc3F)ccnc2cc1OCCCN1CCOCC1 [Foretinib] (partner 0.25 µM)
How it was run: as §1

[10] = compound: CN(C)CC1=CC(=CC=C1)N=C(C2=CC=CC=C2)C3=C(NC4=C3C=CC(=C4)C(=O)N(C)C)O
How it was run: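 A plate was accepted only when its control CV was below 25% and the cells had doubled at least once. Viability is defined from nuclear counts as treated wells divided by vehicle wells, with the median taken across plates. That median covers lung cancer cell lines grown in 1536-well plates, dosed by pinning at five √10-spaced library-drug concentrations, and counted in MetaXpress from 4× Hoechst images after 5 days.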

With NCI-H1299 the relative viability ([1]; first compound 0.08 µM) was 1.05, the relative viability ([1]; first compound 0.253 µM) was 0.969 and the relative viability ([1]; first compound 0.8 µM) was 1.02. The relative viability ([1]; first compound 2.53 µM) was 0.946, the relative viability ([1]; first compound 8 µM) was 0.972 and the relative viability ([2]; first compound 0.08 µM) was 0.509. For the same cell line, the relative viability ([2]; first compound 0.253 µM) was 0.854, the relative viability ([2]; first compound 0.8 µM) was 0.849 and the relative viability ([2]; first compound 2.53 µM) was 0.6. For the same cell line, the relative viability ([2]; first compound 8 µM) was 0.355, the relative viability ([3]; first compound 0.08 µM) was 0.957 and the relative viability ([3]; first compound 0.253 µM) was 0.914. The relative viability ([3]; first compound 0.8 µM) was 0.977, the relative viability ([3]; first compound 2.53 µM) was 0.875 and the relative viability ([3]; first compound 8 µM) was 0.915. It also gave a relative viability ([4]; first compound 0.08 µM) of 1.02, a relative viability ([4]; first compound 0.253 µM) of 1.04 and a relative viability ([4]; first compound 0.8 µM) of 1.01. It also gave a relative viability ([4]; first compound 2.53 µM) of 0.996, a relative viability ([4]; first compound 8 µM) of 0.912 and a relative viability ([5]; first compound 0.08 µM) of 0.92. For the same cell line, the relative viability ([5]; first compound 0.253 µM) was 0.93, the relative viability ([5]; first compound 0.8 µM) was 0.988 and the relative viability ([5]; first compound 2.53 µM) was 0.834. For the same cell line, the relative viability ([5]; first compound 8 µM) was 0.939, the relative viability ([6]; first compound 0.08 µM) was 0.982 and the relative viability ([6]; first compound 0.253 µM) was 0.999. For the same cell line, the relative viability ([6]; first compound 0.8 µM) was 0.962, the relative viability ([6]; first compound 2.53 µM) was 0.909 and the relative viability ([6]; first compound 8 µM) was 0.901. The relative viability ([7]; first compound 0.08 µM) was 0.953, the relative viability ([7]; first compound 0.253 µM) was 1.04 and the relative viability ([7]; first compound 0.8 µM) was 1.05. The relative viability ([7]; first compound 2.53 µM) was 1.04, the relative viability ([7]; first compound 8 µM) was 1.02 and the relative viability ([8]; first compound 0.08 µM) was 1.14. The relative viability ([8]; first compound 0.253 µM) was 1.05, the relative viability ([8]; first compound 0.8 µM) was 1.09 and the relative viability ([8]; first compound 2.53 µM) was 1.03. The relative viability ([8]; first compound 8 µM) was 1.01, the relative viability ([9]; first compound 0.08 µM) was 1.09 and the relative viability ([9]; first compound 0.253 µM) was 1.06. It also gave a relative viability ([9]; first compound 0.8 µM) of 1.14, a relative viability ([9]; first compound 2.53 µM) of 1.04 and a relative viability ([9]; first compound 8 µM) of 1.08. It also gave a relative viability ([10]; 0.08 µM) of 0.998, a relative viability ([10]; 0.253 µM) of 1.03 and a relative viability ([10]; 0.8 µM) of 1.01. For the same cell line, the relative viability ([10]; 2.53 µM) was 1.01 and the relative viability ([10]; 8 µM) was 0.977.

With EBC-1 the relative viability ([1]; first compound 0.08 µM) was 1.02, the relative viability ([1]; first compound 0.253 µM) was 0.964 and the relative viability ([1]; first compound 0.8 µM) was 1.05. It also gave a relative viability ([1]; first compound 2.53 µM) of 1, a relative viability ([1]; first compound 8 µM) of 1.08 and a relative viability ([2]; first compound 0.08 µM) of 0.441. The relative viability ([2]; first compound 0.253 µM) was 0.456, the relative viability ([2]; first compound 0.8 µM) was 0.416 and the relative viability ([2]; first compound 2.53 µM) was 0.365. For the same cell line, the relative viability ([2]; first compound 8 µM) was 0.318, the relative viability ([3]; first compound 0.08 µM) was 0.223 and the relative viability ([3]; first compound 0.253 µM) was 0.248. It also gave a relative viability ([3]; first compound 0.8 µM) of 0.227, a relative viability ([3]; first compound 2.53 µM) of 0.198 and a relative viability ([3]; first compound 8 µM) of 0.225. It also gave a relative viability ([4]; first compound 0.08 µM) of 0.551, a relative viability ([4]; first compound 0.253 µM) of 0.632 and a relative viability ([4]; first compound 0.8 µM) of 0.605. For the same cell line, the relative viability ([4]; first compound 2.53 µM) was 0.737, the relative viability ([4]; first compound 8 µM) was 0.598 and the relative viability ([5]; first compound 0.08 µM) was 0.186. The relative viability ([5]; first compound 0.253 µM) was 0.212, the relative viability ([5]; first compound 0.8 µM) was 0.21 and the relative viability ([5]; first compound 2.53 µM) was 0.184. It also gave a relative viability ([5]; first compound 8 µM) of 0.196, a relative viability ([6]; first compound 0.08 µM) of 0.785 and a relative viability ([6]; first compound 0.253 µM) of 0.732. For the same cell line, the relative viability ([6]; first compound 0.8 µM) was 0.772, the relative viability ([6]; first compound 2.53 µM) was 0.744 and the relative viability ([6]; first compound 8 µM) was 0.845. It also gave a relative viability ([7]; first compound 0.08 µM) of 0.958, a relative viability ([7]; first compound 0.253 µM) of 0.891 and a relative viability ([7]; first compound 0.8 µM) of 1.06. The relative viability ([7]; first compound 2.53 µM) was 0.917, the relative viability ([7]; first compound 8 µM) was 0.816 and the relative viability ([8]; first compound 0.08 µM) was 0.459. For the same cell line, the relative viability ([8]; first compound 0.253 µM) was 0.411, the relative viability ([8]; first compound 0.8 µM) was 0.539 and the relative viability ([8]; first compound 2.53 µM) was 0.522. The relative viability ([8]; first compound 8 µM) was 0.518, the relative viability ([9]; first compound 0.08 µM) was 0.0943 and the relative viability ([9]; first compound 0.253 µM) was 0.112. The relative viability ([9]; first compound 0.8 µM) was 0.0994, the relative viability ([9]; first compound 2.53 µM) was 0.103 and the relative viability ([9]; first compound 8 µM) was 0.107. It also gave a relative viability ([10]; 0.08 µM) of 1.02, a relative viability ([10]; 0.253 µM) of 0.958 and a relative viability ([10]; 0.8 µM) of 1.08. For the same cell line, the relative viability ([10]; 2.53 µM) was 0.985 and the relative viability ([10]; 8 µM) was 1.1.
